Measurements as given in US20080160000A1 (priority 2006, published 2008).
Where two headings read alike, the source gives them in different places.

What was measured:
[1] = test system: Eimeria acervulina; test: Example 1: chickens infected with Eimeria acervulina, feed test (growth, lesion, OPG, ACI); assay type: in vivo
Procedure: Seven groups (30 chickens/group) of test chickens (type of chickens: chunky, one week of age, male) were prepared.
The test chickens of the first to seventh groups are bred for 12 days by freely feeding the feeds (Table 4) obtained by adding the ingredients to the basal feed (100 mass %) shown in Table 1. The test chickens of the second to seventh groups excluding the first group were infected with oocysts of coccidial protozoa Eimeria acervulina in a ratio of 5.0×10^4 oocysts/chicken in an oral administration manner on the seventh day after the start of the breeding. Next, after the breeding was finished, the test chickens of the groups were dissected, and degrees of lesions in the duodenums were evaluated according to the following evaluation criteria. In addition, on the dissection day, feces of the groups were sampled, and the number of oocysts per gram of the feces (OPG) was measured. OPG scores were determined by OPG values according to the evaluation criteria as follow.

[2] = test system: Eimeria maxima; test: Example 2: chickens infected with Eimeria maxima, feed test (growth, OPG); assay type: in vivo
Procedure: Three groups (20 chickens/group) of tested chickens (type of chickens: chunky, neonatal chick, male) were prepared.
The test chickens of the eighth to tenth groups are bred for 28 days by freely feeding the feeds (Table 6) obtained by adding the ingredients to the basal feed (100 mass %) shown in Table 1. The test chickens of all the groups were infected with oocysts of coccidial protozoa Eimeria maxima in a ratio of 1.5×10^4 oocysts/chicken in an oral administration manner on the twenty-first day after the breeding. On each sixth to eighth day after the infection, the feces of the groups were sampled, and the number of oocysts per gram of the feces (OPG) was measured (as a three-day average value).

[3] = test system: clostridium perfringens; assay type: in vivo, chickens; details: for Body weight, compared-group comparison / Body weight gain, compared-group comparison / Feed intake, compared-group comparison / Feed conversion ratio, compared-group comparison / Number of clostridium perfringens, compared-group comparison: index, Fifteenth Group = 100

## CC[C@@H](C(=O)[C@@H](C)[C@@H](O)[C@H](C)[C@@H]1O[C@@H]([C@@H](CC)C(=O)O)CC[C@@H]1C)[C@H]1O[C@]2(C=C[C@@H](O)[C@]3(CC[C@@](C)([C@H]4CC[C@](O)(CC)[C@H](C)O4)O3)O2)[C@H](C)C[C@@H]1C [Third group, Salinomycine]
[1]; 0 to 40 points from OPG values per Table 3, average of three tested bodies in each group
  Average OPG score in feces D: 33.3
[1]; ACI = (A + B) − (10C + D)
  ACI (anticoccidial indces): 126
[1]; First group (non-infected basal feed) = 100
  Relative ratio weight gain/initial weight (compared with First group) A: 95.0%
[1]; after 12 days breeding, infected on day 7 with 5.0×10^4 oocysts/chicken
  Average final body weight: 643 g
[1]; in vivo
  Feed conversion ratio: 1.32
  Feed intake: 318 g/chicken
  Survival ratio B: 100.0%
  Weight gain/initial weight ratio: 60.1%
[1]; initial to final weight
  Body weight gain: 242 g/chicken
[1]; lesion in duodenum, 0 to 4 points per Table 2
  Average lesion score C: 3.6
[2]; 28 days
  Body weight gain: 1018 g/chicken
  Feed conversion ratio: 1.50
  Feed intake: 1525 g/chicken
[2]; 28 days breeding, infected day 21 with 1.5×10^4 oocysts/chicken
  Final body weight: 1054 g/chicken
[2]; average on the 6 to 8 days after infection
  Maxima OPG: 3.1 10,000 oocysts/g of feces
[2]; in vivo
  Growth ratio: 100(100) %
[2]; index, Eighth Group (basal feed) = 100
  Final body weight, compared-group comparison: 117
[2]; index, Eighth Group = 100
  Body weight gain, compared-group comparison: 117
  Feed conversion ratio, compared-group comparison: 94
  Feed intake, compared-group comparison: 110
  Growth ratio, compared-group comparison: 100(100)
  Maxima OPG, compared-group comparison: 18

## enramycin [Sixteenth Group]
[3]; 1 week
  Body weight gain: 96 g/chicken
  Feed intake: 118 g/chicken
  Body weight gain, compared-group comparison: 121
  Feed intake, compared-group comparison: 107
[3]; 1 week of age, basal feed with 30% rye
  Body weight: 136 g/chicken
[3]; 1 week of age
  Body weight, compared-group comparison: 114
[3]; 2 weeks
  Body weight gain: 220 g/chicken
  Feed intake: 323 g/chicken
  Body weight gain, compared-group comparison: 132
  Feed intake, compared-group comparison: 140
[3]; 2 weeks of age
  Body weight: 356 g/chicken
  Body weight, compared-group comparison: 124
[3]; 3 weeks
  Body weight gain: 345 g/chicken
  Feed intake: 510 g/chicken
  Body weight gain, compared-group comparison: 135
  Feed intake, compared-group comparison: 124
[3]; 3 weeks of age
  Body weight: 700 g/chicken
  Body weight, compared-group comparison: 130
[3]; First week
  Feed conversion ratio: 1.23
  Feed conversion ratio, compared-group comparison: 89
  Number of clostridium perfringens, compared-group comparison: 34
[3]; First week, cloacal swab
  Number of clostridium perfringens: 2.0 LogCFU/g
[3]; Second week
  Feed conversion ratio: 1.47
  Feed conversion ratio, compared-group comparison: 106
  Number of clostridium perfringens, compared-group comparison: 47
[3]; Second week, cloacal swab
  Number of clostridium perfringens: 2.0 LogCFU/g
[3]; Third week
  Feed conversion ratio: 1.48
  Feed conversion ratio, compared-group comparison: 91
  Number of clostridium perfringens, compared-group comparison: 41
[3]; Third week, cloacal swab
  Number of clostridium perfringens: 2.0 LogCFU/g
[3]; Total
  Feed conversion ratio: 1.44
  Body weight gain, compared-group comparison: 132
  Feed conversion ratio, compared-group comparison: 96
  Feed intake, compared-group comparison: 126
  Number of clostridium perfringens, compared-group comparison: 40
[3]; Total (21 days)
  Body weight gain: 660 g/chicken
  Feed intake: 950 g/chicken
[3]; Total (no unit printed in this row; weekly rows in LogCFU/g)
  Number of clostridium perfringens: 2.0
